Relative viability data for 1 cell line are collected here from the supplement of paper PMC10307832.

Holding throughout (test): relative viability (nuclei count vs DMSO), 5 days (fraction); higher = more cells survive
Compound in the assay “Entinostat + Pemetrexed”: Nc1ccccc1NC(=O)c1ccc(CNC(=O)OCc2cccnc2)cc1 [Entinostat] + Nc1nc2[nH]cc(CCc3ccc(C(=O)N[C@@H](CCC(=O)O)C(=O)O)cc3)c2c(=O)[nH]1 [Pemetrexed] (partner 0.2 µM)
The method, boiled down:
(§1)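 Lung cancer cell lines, seeded in 1536-well plates, were treated the following day by pin tool with a single drug or with five library-drug doses (not always all listed) in √10 steps on top of a fixed anchor-drug dose. Cells were fixed and nuclei stained in one step after 5 days, and nuclei were counted. Relative viability is the nuclei count for treated wells divided by that for vehicle wells, reported as medians of duplicate plates.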

Compound in the assay “Entinostat + Palbociclib”: Nc1ccccc1NC(=O)c1ccc(CNC(=O)OCc2cccnc2)cc1 [Entinostat] + CC(=O)c1c(C)c2cnc(Nc3ccc(N4CCNCC4)cn3)nc2n(C2CCCC2)c1=O [Palbociclib] (partner 0.5 µM)
The method, boiled down:
as §1

Compound in assay [1]: C1COCCN1C2=NC(=NC3=C2OC4=C3C=CC=N4)C5=CC(=CC=C5)NC(=O)C6=CN=C(C=C6)N + Nc1nc2[nH]cc(CCc3ccc(C(=O)N[C@@H](CCC(=O)O)C(=O)O)cc3)c2c(=O)[nH]1 [Pemetrexed] (partner 0.2 µM)
An outline of the steps:
as §1

Compound in the assay “Entinostat + Dasatinib”: Nc1ccccc1NC(=O)c1ccc(CNC(=O)OCc2cccnc2)cc1 [Entinostat] + Cc1nc(Nc2ncc(C(=O)Nc3c(C)cccc3Cl)s2)cc(N2CCN(CCO)CC2)n1 [Dasatinib] (partner 0.075 µM)
An outline of the steps:
as §1

In the case of UMC-11, the relative viability with Entinostat + Pemetrexed (first compound 0.02 µM) amounted to 0.733; with Entinostat + Pemetrexed (first compound 0.06325 µM), 0.738; with Entinostat + Pemetrexed (first compound 0.2 µM), 0.5; in the assay with Entinostat + Pemetrexed (first compound 0.6325 µM) it was 0.346; in the assay with Entinostat + Pemetrexed (first compound 2 µM), 0.145; with Entinostat + Palbociclib (first compound 0.02 µM), 0.367. The relative viability came to 0.338 with Entinostat + Palbociclib (first compound 0.06325 µM); 0.367 in the assay with Entinostat + Palbociclib (first compound 0.2 µM); 0.274 in the assay with Entinostat + Palbociclib (first compound 0.6325 µM); 0.202 with Entinostat + Palbociclib (first compound 2 µM); 0.772 in assay [1] (first compound 0.02 µM); 0.827 in assay [1] (first compound 0.06325 µM). Further, the relative viability in assay [1] (first compound 0.2 µM) worked out at 0.694; in assay [1] (first compound 0.6325 µM), 0.814; in assay [1] (first compound 2 µM), 0.445; in the assay with Entinostat + Dasatinib (first compound 0.02 µM), 0.468; with Entinostat + Dasatinib (first compound 0.06325 µM) it was 0.478; in the assay with Entinostat + Dasatinib (first compound 0.2 µM), 0.399. Also, the relative viability with Entinostat + Dasatinib (first compound 0.6325 µM) worked out at 0.193; in the assay with Entinostat + Dasatinib (first compound 2 µM), 0.17.
